Key:
[1] = molecular target: T1, human indoleamine 2,3-dioxygenase 1 (hIDO1) (Homo sapiens, UniProt P14902); assay: X-ray crystal structure ([…] Å); activity titration; type: biochemical
T1 construct: gene IDO1

[2] = molecular target: T2, human indoleamine 2,3-dioxygenase 1 (hIDO1) (Homo sapiens, UniProt P14902, F270G); assay: X-ray crystal structure ([…] Å); activity titration (inhibition); type: biochemical
T2 construct: gene IDO1

[3] = molecular target: T2, human indoleamine 2,3-dioxygenase 1 (hIDO1); assay: X-ray crystal structure ([…] Å), two Trp bound; steady-state activity; type: binding
[4] = molecular target: T1, human indoleamine 2,3-dioxygenase 1 (hIDO1); assay: X-ray crystal structure ([…] Å); steady-state activity; type: binding

T2 sequence (P14902 11-403 F270G): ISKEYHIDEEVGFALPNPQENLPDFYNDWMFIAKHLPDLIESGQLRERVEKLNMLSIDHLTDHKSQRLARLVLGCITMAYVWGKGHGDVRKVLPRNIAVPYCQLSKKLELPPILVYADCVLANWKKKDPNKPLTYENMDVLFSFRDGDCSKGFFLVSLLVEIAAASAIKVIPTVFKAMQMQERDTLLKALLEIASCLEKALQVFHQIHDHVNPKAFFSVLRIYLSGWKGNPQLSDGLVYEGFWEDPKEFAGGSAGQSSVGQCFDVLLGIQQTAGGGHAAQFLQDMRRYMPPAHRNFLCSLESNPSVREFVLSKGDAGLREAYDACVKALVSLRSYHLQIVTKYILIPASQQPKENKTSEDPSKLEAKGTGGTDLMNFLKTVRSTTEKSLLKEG
T1 sequence (P14902 whole entry): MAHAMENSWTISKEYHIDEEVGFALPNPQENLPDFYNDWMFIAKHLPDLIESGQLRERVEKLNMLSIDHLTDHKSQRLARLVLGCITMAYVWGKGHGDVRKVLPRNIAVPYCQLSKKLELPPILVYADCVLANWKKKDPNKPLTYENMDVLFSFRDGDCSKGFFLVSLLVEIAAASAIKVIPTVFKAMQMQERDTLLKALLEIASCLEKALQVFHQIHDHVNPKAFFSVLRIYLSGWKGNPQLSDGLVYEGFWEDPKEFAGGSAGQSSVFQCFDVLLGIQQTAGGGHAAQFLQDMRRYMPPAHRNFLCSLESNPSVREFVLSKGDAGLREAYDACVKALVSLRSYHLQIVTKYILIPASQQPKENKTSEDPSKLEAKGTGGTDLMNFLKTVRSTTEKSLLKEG

| SMILES | Kd [1] [µM] | Kd [2] [µM] | X-ray crystal structure (3.03 Å), two Trp bound; steady-state activity [3] | X-ray crystal structure (2.40 Å); steady-state activity [4] |
| --- | --- | --- | --- | --- |
| OCCc1c[nH]c2ccccc12 [IDE, 3-indole ethanol] | ~230 | ~100 |  |  |
| N[C@@H](Cc1c[nH]c2ccccc12)C(=O)O [Trp] |  |  | Crystal structure of the F270G-CN-Trp complex in a two Trp-bound state, where both the Sa and Si sites are occupied | The substrate Trp binds in the distal heme pocket, which is enclosed by the JK-Loop^C and the DE-Loop |
